Among the data in patent US7709503B2, “Pyrrol derivatives with antibacterial activity” (AstraZeneca AB, priority 2003, dated 2010) are MIC and melting point values, retold here.

By MIC is commonly meant the smallest concentration in the dilution series that meets the test's criterion for growth inhibition. A lower MIC goes with greater potency. A word on the melting point: it is the temperature, or range, at which the solid turns liquid.

Structures are written as SMILES. ≈ marks a conversion by molar mass, not a printed value.

One data set has as its system Streptococcus pneumoniae. Description: Bacterial susceptibility testing in liquid media (Minimum Inhibitory Concentration). The data set is classed as cell-based. Particulars: against Streptococcus pneumoniae, 37 degrees C., 24 hrs, lowest concentration able to reduce growth by 80% or more. The protocol:
Compounds were tested for antimicrobial activity by susceptibility testing in liquid media. Compounds were dissolved in dimethylsulfoxide and tested in 10 doubling dilutions in the susceptibility assays. The organisms used in the assay were grown overnight on suitable agar media and then suspended in a liquid medium appropriate for the growth of the organism. The suspension was a 0.5 McFarland and a further 1 in 10 dilution was made into the same liquid medium to prepare the final organism suspension in 100 μL. Plates were incubated under appropriate conditions at 37 degrees C. for 24 hrs prior to reading. The Minimum Inhibitory Concentration was determined as the lowest drug concentration able to reduce growth by 80% or more.

Consider `Cc1[nH]c(C(=O)NC2CCN(c3nc(C#N)cs3)CC2)cc1Br` [Example 130, 4-Bromo-N-[1-(4-cyano-1,3-thiazol-2-yl)piperidin-4-yl]-5-methyl-1H-pyrrole-2-carboxamide], for which, in the data set with Streptococcus pneumoniae, the MIC worked out at 2 µg/mL (≈ 5.07 µM).

On to `Cc1[nH]c(C(=O)NC2CCN(c3cc(C(=O)O)nc4ccccc34)CC2)c(Cl)c1Cl` [Example 225, 4-(4-{[(3,4-Dichloro-5-methyl-1H-pyrrol-2-yl)carbonyl]amino}piperidin-1-yl)quinoline-2-carboxylic acid], for which the melting point fell in the range of 254 to 256 °C.

Turning to `Cc1[nH]c(C(=O)NC2CCN(c3cc(C(=O)O)on3)CC2)c(Cl)c1Cl` [Example 226, 3-(4-{[(3,4-Dichloro-5-methyl-1H-pyrrol-2-yl)carbonyl]amino}piperidin-1-yl)isoxazole-5-carboxylic acid], the melting point fell in the range of 232 to 234 °C.
